What was measured:
Type in all cases: functional
BT-549 = test: Growth inhibition of human BT549 cells assessed as growth inhibition at 10 uM by sulforhodamine B assay; settings: read-out: GI
[1] = Growth inhibition of human Hs 578T cells assessed as growth inhibition at 10 uM by sulforhodamine B assay; settings: read-out: GI
UO-31 = test: Growth inhibition of human UO31 cells assessed as growth inhibition at 10 uM by sulforhodamine B assay; settings: read-out: GI
TK-10 [2] = test: Growth inhibition of human TK10 cells assessed as growth inhibition at 10 uM by sulforhodamine B assay; settings: read-out: GI
RXF 393 = test: Growth inhibition of human RXF393 cells assessed as growth inhibition at 10 uM by sulforhodamine B assay; settings: read-out: GI
ACHN = test: Growth inhibition of human ACHN cells assessed as growth inhibition at 10 uM by sulforhodamine B assay; settings: read-out: GI
A498 = test: Growth inhibition of human A498 cells assessed as growth inhibition at 10 uM by sulforhodamine B assay; settings: read-out: GI
786-0 [3] = test: Growth inhibition of human 786-0 cells assessed as growth inhibition at 10 uM by sulforhodamine B assay; settings: read-out: GI
[4] = Growth inhibition of human NCI-ADR-RES cells assessed as growth inhibition at 10 uM by sulforhodamine B assay; settings: read-out: GI
MOLT-4 = test: Growth inhibition of human MOLT4 cells assessed as cell growth at 10 uM by sulforhodamine B assay; settings: read-out: Activity
HL-60(TB) = test: Growth inhibition of human HL-60(TB) cells assessed as cell growth at 10 uM by sulforhodamine B assay; settings: read-out: Activity
CCRF-CEM = test: Growth inhibition of human CCRF-CEM cells assessed as cell growth at 10 uM by sulforhodamine B assay; settings: read-out: Activity
IGROV-1 [5] = test: Growth inhibition of human IGROV1 cells assessed as growth inhibition at 10 uM by sulforhodamine B assay; settings: read-out: GI
UACC-62 [6] = test: Growth inhibition of human UACC62 cells assessed as growth inhibition at 10 uM by sulforhodamine B assay; settings: read-out: GI
SK-MEL-28 = test: Growth inhibition of human SK-MEL-28 cells assessed as growth inhibition at 10 uM by sulforhodamine B assay; settings: read-out: GI
Malme-3M = test: Growth inhibition of human MALME-3M cells assessed as growth inhibition at 10 uM by sulforhodamine B assay; settings: read-out: GI
U-251 = test: Growth inhibition of human U251 cells assessed as growth inhibition at 10 uM by sulforhodamine B assay; settings: read-out: GI
SW-620 = test: Growth inhibition of human SW620 cells assessed as growth inhibition at 10 uM by sulforhodamine B assay; settings: read-out: GI
HCT-15 = test: Growth inhibition of human HCT15 cells assessed as growth inhibition at 10 uM by sulforhodamine B assay; settings: read-out: GI
HCT-116 [7] = test: Growth inhibition of human HCT116 cells assessed as growth inhibition at 10 uM by sulforhodamine B assay; settings: read-out: GI
NCI-H460 [8] = test: Growth inhibition of human NCI-H460 cells assessed as growth inhibition at 10 uM by sulforhodamine B assay; settings: read-out: GI
NCI-H23 [9] = test: Growth inhibition of human NCI-H23 cells assessed as growth inhibition at 10 uM by sulforhodamine B assay; settings: read-out: GI
HOP-92 [10] = test: Growth inhibition of human HOP92 cells assessed as growth inhibition at 10 uM by sulforhodamine B assay; settings: read-out: GI
A549 = test: Growth inhibition of human A549/ATCC cells assessed as growth inhibition at 10 uM by sulforhodamine B assay; settings: read-out: GI
SR [11] = test: Growth inhibition of human SR cells assessed as growth inhibition at 10 uM by sulforhodamine B assay; settings: read-out: GI
T47D = test: Growth inhibition of human T47D cells assessed as cell growth at 10 uM by sulforhodamine B assay; settings: read-out: Activity
MCF7 = test: Growth inhibition of human MCF7 cells assessed as cell growth at 10 uM by sulforhodamine B assay; settings: read-out: Activity
DU-145 = test: Growth inhibition of human DU145 cells assessed as cell growth at 10 uM by sulforhodamine B assay; settings: read-out: Activity
PC-3 = test: Growth inhibition of human PC3 cells assessed as cell growth at 10 uM by sulforhodamine B assay; settings: read-out: Activity
TK-10 [12] = test: Growth inhibition of human TK10 cells assessed as cell growth at 10 uM by sulforhodamine B assay; settings: read-out: Activity
786-0 [13] = test: Growth inhibition of human 786-0 cells assessed as cell growth at 10 uM by sulforhodamine B assay; settings: read-out: Activity
OVCAR-5 = test: Growth inhibition of human OVCAR5 cells assessed as cell growth at 10 uM by sulforhodamine B assay; settings: read-out: Activity
OVCAR-4 = test: Growth inhibition of human OVCAR4 cells assessed as cell growth at 10 uM by sulforhodamine B assay; settings: read-out: Activity
IGROV-1 [14] = test: Growth inhibition of human IGROV1 cells assessed as cell growth at 10 uM by sulforhodamine B assay; settings: read-out: Activity
UACC-62 [15] = test: Growth inhibition of human UACC62 cells assessed as cell growth at 10 uM by sulforhodamine B assay; settings: read-out: Activity
SK-MEL-5 = test: Growth inhibition of human SK-MEL-5 cells assessed as cell growth at 10 uM by sulforhodamine B assay; settings: read-out: Activity
SK-MEL-2 = test: Growth inhibition of human SK-MEL-2 cells assessed as cell growth at 10 uM by sulforhodamine B assay; settings: read-out: Activity
MDA-MB-435 = test: Growth inhibition of human MDA-MB-435 cells assessed as cell growth at 10 uM by sulforhodamine B assay; settings: read-out: Activity
SNB-75 = test: Growth inhibition of human SNB75 cells assessed as cell growth at 10 uM by sulforhodamine B assay; settings: read-out: Activity
SNB-19 = test: Growth inhibition of human SNB19 cells assessed as cell growth at 10 uM by sulforhodamine B assay; settings: read-out: Activity
SF-295 = test: Growth inhibition of human SF295 cells assessed as cell growth at 10 uM by sulforhodamine B assay; settings: read-out: Activity
HCT-116 [16] = test: Growth inhibition of human HCT116 cells assessed as cell growth at 10 uM by sulforhodamine B assay; settings: read-out: Activity
COLO 205 = test: Growth inhibition of human COLO205 cells assessed as cell growth at 10 uM by sulforhodamine B assay; settings: read-out: Activity
NCI-H460 [17] = test: Growth inhibition of human NCI-H460 cells assessed as cell growth at 10 uM by sulforhodamine B assay; settings: read-out: Activity
NCI-H322M = test: Growth inhibition of human NCI-H322M cells assessed as cell growth at 10 uM by sulforhodamine B assay; settings: read-out: Activity
NCI-H23 [18] = test: Growth inhibition of human NCI-H23 cells assessed as cell growth at 10 uM by sulforhodamine B assay; settings: read-out: Activity
HOP-92 [19] = test: Growth inhibition of human HOP92 cells assessed as cell growth at 10 uM by sulforhodamine B assay; settings: read-out: Activity
HOP-62 = test: Growth inhibition of human HOP62 cells assessed as cell growth at 10 uM by sulforhodamine B assay; settings: read-out: Activity
SR [20] = test: Growth inhibition of human SR cells assessed as cell growth at 10 uM by sulforhodamine B assay; settings: read-out: Activity

SMILES: CC1(C)C[C@@H](O)[C@]2(C(=O)O)CC[C@]3(C)C(=CC[C@@H]4[C@@]5(C)C/C(=C\C=C\c6ccccc6)C(=O)C(C)(C)[C@@H]5CC[C@]43C)[C@@H]2C1
- inhibition of growth at 10 µM (BT-549): 30%
- inhibition of growth at 10 µM [1]: 41.6%
- inhibition of growth at 10 µM (UO-31): 59.7%
- inhibition of growth at 10 µM (TK-10 [2]): 11.7%
- inhibition of growth at 10 µM (RXF 393): 15.9%
- inhibition of growth at 10 µM (ACHN): 58.1%
- inhibition of growth at 10 µM (A498): < 10%
- inhibition of growth at 10 µM (786-0 [3]): 21.9%
- inhibition of growth at 10 µM [4]: 23.8%
- growth at 10 µM (MOLT-4): 44.4%
- growth at 10 µM (HL-60(TB)): 38.8%
- growth at 10 µM (CCRF-CEM): 19.9%
- inhibition of growth at 10 µM (IGROV-1 [5]): 39.2%
- inhibition of growth at 10 µM (UACC-62 [6]): 49.6%
- inhibition of growth at 10 µM (SK-MEL-28): 25.8%
- inhibition of growth at 10 µM (Malme-3M): 15.5%
- inhibition of growth at 10 µM (U-251): 66.4%
- inhibition of growth at 10 µM (SW-620): 44.2%
- inhibition of growth at 10 µM (HCT-15): 64.8%
- inhibition of growth at 10 µM (HCT-116 [7]): 82.5%
- inhibition of growth at 10 µM (NCI-H460 [8]): 54.2%
- inhibition of growth at 10 µM (NCI-H23 [9]): 40.3%
- inhibition of growth at 10 µM (HOP-92 [10]): 50.8%
- inhibition of growth at 10 µM (A549): 77.3%
- inhibition of growth at 10 µM (SR [11]): 37.4%
- growth at 10 µM (T47D): 37.6%
- growth at 10 µM (MCF7): 33.8%
- growth at 10 µM (DU-145): 71.2%
- growth at 10 µM (PC-3): 41.5%
- growth at 10 µM (TK-10 [12]): 88.3%
- growth at 10 µM (786-0 [13]): 78.1%
- growth at 10 µM (OVCAR-5): 104%
- growth at 10 µM (OVCAR-4): 54.2%
- growth at 10 µM (IGROV-1 [14]): 60.8%
- growth at 10 µM (UACC-62 [15]): 50.4%
- growth at 10 µM (SK-MEL-5): 73.7%
- growth at 10 µM (SK-MEL-2): 64.6%
- growth at 10 µM (MDA-MB-435): 72.3%
- growth at 10 µM (SNB-75): 72.1%
- growth at 10 µM (SNB-19): 73.4%
- growth at 10 µM (SF-295): 23.5%
- growth at 10 µM (HCT-116 [16]): 17.5%
- growth at 10 µM (COLO 205): 97.8%
- growth at 10 µM (NCI-H460 [17]): 45.8%
- growth at 10 µM (NCI-H322M): 71.9%
- growth at 10 µM (NCI-H23 [18]): 59.7%
- growth at 10 µM (HOP-92 [19]): 49.2%
- growth at 10 µM (HOP-62): 62.8%
- growth at 10 µM (SR [20]): 62.6%

Reference: ChEMBL document CHEMBL2413072, “Synthesis and in vitro anticancer studies of novel C-2 arylidene congeners of lantadenes” (2013)
